Assay results reported in patent US10457654B2 (GENENTECH, INC., priority 2017, dated 2019).
pIC50: −log10 of the molar value.

Legend:
hNav1.7 [1] = target: T1, hNav1.7 (Homo sapiens (Human), UniProt Q15858); test: Patch voltage clamp electrophysiology assay (EP), Syncropatch 384PE, CHO cells expressing Nav1.7; type: cell-based; conditions: holding potential -50 mV; […] compound incubation; read-out: EP_SP hNav1.7 (Ex. 243B) IC50
Experimental: Electrophysiological Assay (EP) (In Vitro Assay)
The following voltage clamp electrophysiology studies were performed on representative compounds using cells heterologously expressing Nav1.7 or Nav1.5 channels. cDNAs for Nav1.7 (NM_002977) and Nav1.5 (AC137587) were stably expressed in Chinese Hamstr Ovary (CHO) cells and CHL (Chinese Hamster Lung) cells respectively. […] Internal solution consists of (in mM): 110 […], 10 […], 20 EGTA, and 10 Hepes (pH adjusted to 7.2); and external solution contains (in mM): 60 NMDG, 80 NaCl, 4 KCl, 1 MgCl2, 2 CaCl2, 2 D-Glucose monohydrate, 10 Hepes (pH adjusted to 7.4 with NaOH).
The chip is moved into the measuring head and the instrument primes the chip with external and internal solutions. […] cells are added to the chip from a cell hotel, and a negative pressure of −50 mBar is applied to form a seal. Following treatment with seal enhancer solution and wash-off with external solution, negative pressure of −250 mbar is applied for 1 second to achieve the whole-cell configuration, followed by three washing steps in external solution. 20 μl of compounds is added to 40 μl in each well (1:3 dilution of compounds), and after mixing, 20 μl is removed so the volume is retained at 40 μl.
For voltage protocol, an holding potential of −50 mV is applied during the whole experiment. A depolarizing step is applied to −10 mV for 10 ms, followed by a hyperpolarization step to −150 mV for 20 ms to allow channel recovery from inactivation. A second depolarizing step is applied from −150 mV to −10 mV for 10 ms, where currents were measured to derive blocking effects of compounds. Inhibition is determined based on 7.5 min of compound incubation.
Target sequence in this assay (Q15858 other isoform, or with tags, fused parts or gaps): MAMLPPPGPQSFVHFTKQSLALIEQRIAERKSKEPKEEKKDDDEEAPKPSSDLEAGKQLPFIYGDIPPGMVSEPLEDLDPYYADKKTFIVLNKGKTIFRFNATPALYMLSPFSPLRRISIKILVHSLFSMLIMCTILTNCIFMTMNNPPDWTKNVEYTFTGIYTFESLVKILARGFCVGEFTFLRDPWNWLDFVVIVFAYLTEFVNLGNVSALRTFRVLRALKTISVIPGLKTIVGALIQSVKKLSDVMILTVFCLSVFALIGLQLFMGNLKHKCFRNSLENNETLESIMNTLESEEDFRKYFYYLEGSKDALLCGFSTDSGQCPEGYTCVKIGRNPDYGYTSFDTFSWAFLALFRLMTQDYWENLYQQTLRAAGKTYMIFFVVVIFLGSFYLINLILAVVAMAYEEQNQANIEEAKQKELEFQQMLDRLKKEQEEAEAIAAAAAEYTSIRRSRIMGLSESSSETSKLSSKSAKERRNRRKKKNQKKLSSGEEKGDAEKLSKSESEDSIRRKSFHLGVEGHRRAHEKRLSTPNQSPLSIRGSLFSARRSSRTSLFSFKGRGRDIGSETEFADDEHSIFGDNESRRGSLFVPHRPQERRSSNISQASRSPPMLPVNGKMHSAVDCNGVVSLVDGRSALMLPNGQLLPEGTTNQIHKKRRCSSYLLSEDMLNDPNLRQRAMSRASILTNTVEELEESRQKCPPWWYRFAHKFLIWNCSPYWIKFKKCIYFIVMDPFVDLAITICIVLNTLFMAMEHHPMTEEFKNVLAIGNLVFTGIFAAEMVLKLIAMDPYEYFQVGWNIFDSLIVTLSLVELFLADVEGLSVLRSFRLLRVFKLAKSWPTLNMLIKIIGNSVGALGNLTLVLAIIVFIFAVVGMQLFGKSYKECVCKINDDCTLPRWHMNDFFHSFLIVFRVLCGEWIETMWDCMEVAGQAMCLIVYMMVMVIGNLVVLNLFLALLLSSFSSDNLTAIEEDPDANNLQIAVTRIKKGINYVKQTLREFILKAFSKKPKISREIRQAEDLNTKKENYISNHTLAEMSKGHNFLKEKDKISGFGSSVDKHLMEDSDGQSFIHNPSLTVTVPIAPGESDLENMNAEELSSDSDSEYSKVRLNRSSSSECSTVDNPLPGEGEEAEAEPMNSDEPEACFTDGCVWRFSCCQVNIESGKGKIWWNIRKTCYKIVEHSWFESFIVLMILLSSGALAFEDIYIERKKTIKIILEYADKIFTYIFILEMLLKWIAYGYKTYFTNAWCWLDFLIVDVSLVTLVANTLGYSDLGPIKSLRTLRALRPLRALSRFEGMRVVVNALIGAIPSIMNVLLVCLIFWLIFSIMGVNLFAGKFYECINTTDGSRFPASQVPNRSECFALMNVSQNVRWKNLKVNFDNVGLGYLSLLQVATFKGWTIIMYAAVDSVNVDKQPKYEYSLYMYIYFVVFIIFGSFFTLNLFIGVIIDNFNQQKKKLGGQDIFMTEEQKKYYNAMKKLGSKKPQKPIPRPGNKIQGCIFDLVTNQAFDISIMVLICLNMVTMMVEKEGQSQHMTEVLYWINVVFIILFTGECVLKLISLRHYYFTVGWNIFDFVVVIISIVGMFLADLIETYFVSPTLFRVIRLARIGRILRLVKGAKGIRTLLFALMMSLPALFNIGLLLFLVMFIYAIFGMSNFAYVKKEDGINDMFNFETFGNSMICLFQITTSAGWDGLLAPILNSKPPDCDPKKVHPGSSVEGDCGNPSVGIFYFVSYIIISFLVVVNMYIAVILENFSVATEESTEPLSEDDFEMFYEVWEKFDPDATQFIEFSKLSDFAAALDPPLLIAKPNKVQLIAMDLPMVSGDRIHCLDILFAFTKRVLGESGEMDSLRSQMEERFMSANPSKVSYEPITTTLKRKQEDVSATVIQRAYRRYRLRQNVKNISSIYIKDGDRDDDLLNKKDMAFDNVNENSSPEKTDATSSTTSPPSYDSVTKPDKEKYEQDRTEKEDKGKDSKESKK

hNav1.7 [2] = target: T1, hNav1.7; test: Tritiated compound binding to membranes from cells expressing hNav1.7 and the β1 subunit, modified protocol (LBA, Ex. 243B); conditions: 300 pM [3H]compound, room temperature, read-out: Nav1.7 LBA (Ex. 243B) IC50
Target sequence in this assay (Q15858 whole entry, looked up): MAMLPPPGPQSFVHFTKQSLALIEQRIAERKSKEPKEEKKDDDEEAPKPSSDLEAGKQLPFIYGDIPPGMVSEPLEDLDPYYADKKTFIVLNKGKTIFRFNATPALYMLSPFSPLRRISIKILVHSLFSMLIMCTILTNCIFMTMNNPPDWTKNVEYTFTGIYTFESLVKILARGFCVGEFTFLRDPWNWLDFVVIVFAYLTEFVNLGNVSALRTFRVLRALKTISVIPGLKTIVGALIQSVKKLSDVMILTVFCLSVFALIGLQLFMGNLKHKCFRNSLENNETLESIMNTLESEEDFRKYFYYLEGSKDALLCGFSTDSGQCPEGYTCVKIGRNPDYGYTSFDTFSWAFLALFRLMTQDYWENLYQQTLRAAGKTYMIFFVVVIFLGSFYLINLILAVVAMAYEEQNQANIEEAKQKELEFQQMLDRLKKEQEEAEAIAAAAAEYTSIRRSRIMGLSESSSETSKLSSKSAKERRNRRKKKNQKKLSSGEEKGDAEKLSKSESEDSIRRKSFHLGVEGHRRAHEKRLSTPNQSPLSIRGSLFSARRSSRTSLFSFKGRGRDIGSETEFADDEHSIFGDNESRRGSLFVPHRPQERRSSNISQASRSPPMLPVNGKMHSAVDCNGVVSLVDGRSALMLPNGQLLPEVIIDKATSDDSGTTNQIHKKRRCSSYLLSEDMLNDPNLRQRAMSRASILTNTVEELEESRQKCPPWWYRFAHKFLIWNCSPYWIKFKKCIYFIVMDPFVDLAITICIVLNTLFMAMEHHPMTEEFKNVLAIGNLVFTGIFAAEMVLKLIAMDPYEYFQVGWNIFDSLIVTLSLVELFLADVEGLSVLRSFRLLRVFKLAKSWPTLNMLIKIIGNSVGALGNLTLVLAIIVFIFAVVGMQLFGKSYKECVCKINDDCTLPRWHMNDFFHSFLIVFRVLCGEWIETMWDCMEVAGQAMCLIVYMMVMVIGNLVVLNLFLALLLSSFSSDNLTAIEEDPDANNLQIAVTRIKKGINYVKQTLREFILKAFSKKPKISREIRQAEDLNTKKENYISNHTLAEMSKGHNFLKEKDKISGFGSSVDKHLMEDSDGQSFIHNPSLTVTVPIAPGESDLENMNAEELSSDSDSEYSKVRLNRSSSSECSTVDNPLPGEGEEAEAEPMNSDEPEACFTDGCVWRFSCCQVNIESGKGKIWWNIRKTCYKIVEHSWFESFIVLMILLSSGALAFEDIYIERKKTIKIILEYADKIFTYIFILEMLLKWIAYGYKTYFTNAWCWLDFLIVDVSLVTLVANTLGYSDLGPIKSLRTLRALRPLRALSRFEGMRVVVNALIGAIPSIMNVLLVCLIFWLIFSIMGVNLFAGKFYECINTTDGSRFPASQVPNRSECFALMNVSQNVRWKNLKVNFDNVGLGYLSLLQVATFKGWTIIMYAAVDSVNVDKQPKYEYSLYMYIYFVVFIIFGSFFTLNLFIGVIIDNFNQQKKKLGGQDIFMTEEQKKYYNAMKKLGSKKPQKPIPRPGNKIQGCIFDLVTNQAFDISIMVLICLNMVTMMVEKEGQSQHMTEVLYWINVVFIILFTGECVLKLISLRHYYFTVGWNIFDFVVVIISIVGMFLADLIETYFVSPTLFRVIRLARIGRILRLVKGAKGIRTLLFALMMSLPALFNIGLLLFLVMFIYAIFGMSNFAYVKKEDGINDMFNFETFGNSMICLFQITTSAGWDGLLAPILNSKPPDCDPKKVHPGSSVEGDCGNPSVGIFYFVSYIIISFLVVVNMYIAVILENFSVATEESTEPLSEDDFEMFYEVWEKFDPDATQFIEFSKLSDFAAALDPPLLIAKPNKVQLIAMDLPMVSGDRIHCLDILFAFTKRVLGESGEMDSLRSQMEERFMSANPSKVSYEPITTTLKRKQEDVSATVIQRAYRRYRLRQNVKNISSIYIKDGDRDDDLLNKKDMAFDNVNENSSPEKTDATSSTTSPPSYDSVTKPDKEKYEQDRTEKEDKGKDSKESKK
Target sequence in this assay (Q07699 whole entry partner, looked up): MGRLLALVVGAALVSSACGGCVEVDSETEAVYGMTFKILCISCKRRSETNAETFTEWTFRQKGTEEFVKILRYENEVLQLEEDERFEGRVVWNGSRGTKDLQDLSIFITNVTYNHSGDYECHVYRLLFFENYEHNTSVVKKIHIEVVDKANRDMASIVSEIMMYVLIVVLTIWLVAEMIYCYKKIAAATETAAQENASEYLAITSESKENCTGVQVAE

Compound	pIC50 (hNav1.7 [1])	pIC50 (hNav1.7 [2])
5-Chloro-4-(((1S,2S)-2-(cyclobutyl(methyl)amino)cyclohexyl)amino)-2-fluoro-N-(thiazol-2-yl)benzenesulfonamide formate [Example 115]	8.48	7.74
5-chloro-4-(((1S,2S,4S)-4-(3,5-dichlorophenyl)-2-(dimethylamino)cyclohexyl)amino)-2-fluoro-N-(pyrimidin-4-yl)benzenesulfonamide formate [Example 239]	8.82	8.53
CCN(C)[C@H]1CCCC[C@@H]1N1CCOc2cc(S(=O)(=O)Nc3nccs3)c(F)cc21 (racemic) [Example 189, 4-((trans)-2-(ethyl(methyl)amino)cyclohexyl)-6-fluoro-N-(thiazol-2-yl)-3,4-dihydro-2H-benzo[b][1,4]oxazine-7-sulfonamide]	7.63	6.52
CN(CC(O)CF)[C@H]1CCCC[C@@H]1Nc1cc(F)c(S(=O)(=O)Nc2nccs2)cc1Cl (single isomer, unassigned) [Example 118]	8.07	6.62
CN(CC(O)CF)[C@H]1CCCC[C@@H]1Nc1cc(F)c(S(=O)(=O)Nc2nccs2)cc1Cl (single isomer, unassigned) [Example 119]	7.97	6.74
CN(CC(O)C(F)F)[C@H]1CCCC[C@@H]1Nc1cc(F)c(S(=O)(=O)Nc2nccs2)cc1Cl (single isomer, unassigned) [Example 126]	8.03	7.06
CN(CC(O)C(F)F)[C@H]1CCCC[C@@H]1Nc1cc(F)c(S(=O)(=O)Nc2nccs2)cc1Cl (single isomer, unassigned) [Example 127]	8.18	7.21
CN(C)[C@H]1CCC(c2cccc(C(F)(F)F)c2)C[C@@H]1Nc1cc(F)c(S(=O)(=O)Nc2ccncn2)cc1Cl (stereo in doubt) [Example 120, 5-chloro-4-(((1S,2S,5R)-2-(dimethylamino)-5-(3-(trifluoromethyl)phenyl)cyclohexyl)amino)-2-fluoro-N-(pyrimidin-4-yl)benzenesulfonamide]	8.39	7.58
CN(C)[C@H]1CCC(c2cccc(C(F)(F)F)c2)C[C@@H]1Nc1cc(F)c(S(=O)(=O)Nc2ccncn2)cc1Cl (stereo in doubt) [Example 121, 5-chloro-4-(((1S,2S,5S)-2-(dimethylamino)-5-(3-(trifluoromethyl)phenyl)cyclohexyl)amino)-2-fluoro-N-(pyrimidin-4-yl)benzenesulfonamide]	6.92	5.93
O=S(=O)(Nc1nccs1)c1cc(Cl)c(N[C@H]2CCCC[C@@H]2N2CCCC2CO)cc1F (stereo in doubt) [Example 133, 5-chloro-2-fluoro-4-(((1S,2S)-2-((S)-2-(hydroxymethyl)pyrrolidin-1-yl)cyclohexyl)amino)-N-(thiazol-2-yl)benzenesulfonamide]	8.49	7.68
CN(C)[C@H]1CCC(c2ccccc2F)C[C@@H]1Nc1cc(F)c(S(=O)(=O)Nc2nccs2)cc1Cl (stereo in doubt) [Example 173, 5-chloro-4-(((1S,2S,5R)-2-(dimethylamino)-5-(2-fluorophenyl)cyclohexyl)amino)-2-fluoro-N-(thiazol-2-yl)benzenesulfonamide]	8.59	7.75
CN(C)[C@H]1CCC(c2ccccc2F)C[C@@H]1Nc1cc(F)c(S(=O)(=O)Nc2nccs2)cc1Cl (stereo in doubt) [Example 174, 5-chloro-4-(((1S,2S,5S)-2-(dimethylamino)-5-(2-fluorophenyl)cyclohexyl)amino)-2-fluoro-N-(thiazol-2-yl)benzenesulfonamide]	7.30	6.45
CN(C)[C@H]1C[C@@H](c2cccc(C(F)(F)F)c2)CC[C@@H]1Nc1cc(F)c(S(=O)(=O)Nc2ccncn2)cc1F [Example 220, 4-(((1S,2S,4S)-2-(Dimethylamino)-4-(3-(trifluoromethyl)phenyl)cyclohexyl)amino)-2,5-difluoro-N-(pyrimidin-4-yl)benzenesulfonamide]	9.38	
